Laboratory results: ChEMBL document CHEMBL1201862, “PubChem BioAssay data set” (2004)
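96-well plates; 48 h exposure; 5 concentrations. Endpoints by linear interpolation between flanking doses. Not reached: highest tested concentration assigned. Here, GI50 denotes the concentration required for 50% inhibition of growth.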 Calls of active or inactive are those of the source. No stated cut-off is given here; in the data, active = GI50 up to about 1.1 µM and inactive = higher.

Experiments:
Experiment in all cases: growth of human tumour cells (NCI), 48 h
[1] = tested on: CAKI-1
[2] = tested on: KM12
[3] = tested on: K562
[4] = tested on: HOP-92
[5] = tested on: UACC-62
[6] = tested on: Malme-3M
[7] = tested on: SK-MEL-2
[8] = tested on: SK-MEL-5
[9] = tested on: OVCAR-8
[10] = tested on: BT-549
[11] = tested on: NCI-H522
[12] = tested on: HOP-62
[13] = tested on: HL-60
[14] = tested on: SK-MEL-28
[15] = tested on: LOX IMVI
[16] = tested on: 786-0
[17] = tested on: HCT-116
[18] = tested on: SW-620
[19] = tested on: CCRF-CEM
[20] = tested on: SK-OV-3

Structure (SMILES) | GI50 [1] | GI50 [2] | GI50 [3] | GI50 [4] | GI50 [5] | GI50 [6] | GI50 [7] | GI50 [8] | GI50 [9] | GI50 [10] | GI50 [11] | GI50 [12] | GI50 [13] | GI50 [14] | GI50 [15] | GI50 [16] | GI50 [17] | GI50 [18] | GI50 [19] | GI50 [20]
CN(C)CCNc1ccccn1 | > 100 µM (inactive) | > 100 µM (inactive) | > 100 µM (inactive) | > 100 µM (inactive) | > 100 µM (inactive) | > 100 µM (inactive) | > 100 µM (inactive) | > 100 µM (inactive) | > 100 µM (inactive) | > 100 µM (inactive) | > 100 µM (inactive) | > 100 µM (inactive) | > 100 µM (inactive) | > 100 µM (inactive) | > 100 µM (inactive) | > 100 µM (inactive) | > 100 µM (inactive) | > 100 µM (inactive) |  | 
Cc1cc(=O)oc2c(CN(CCCl)CCCl)c(O)ccc12 | 6.78 µM (inactive) | 78.7 µM (inactive) | 34.5 µM (inactive) | > 100 µM (inactive) | 5.56 µM (inactive) | 34.1 µM (inactive) | > 100 µM (inactive) | 16.6 µM (inactive) | 54.6 µM (inactive) | 21.1 µM (inactive) | 14.5 µM (inactive) | 26.5 µM (inactive) | 4.3 µM (inactive) | 65.5 µM (inactive) | 10.7 µM (inactive) | 33.4 µM (inactive) | 27.8 µM (inactive) | 14 µM (inactive) | 2.47 µM (inactive) | 
N#Cc1c(N)c2c(c(-c3ccccc3)c1-c1ccccc1)C(=O)N(NC(=S)Nc1ccccc1)C2=O | > 100 µM (inactive) | 75.7 µM (inactive) | 88.7 µM (inactive) | 34.2 µM (inactive) | 73.8 µM (inactive) | > 100 µM (inactive) | > 100 µM (inactive) | 43.1 µM (inactive) | 88.7 µM (inactive) | 89.5 µM (inactive) | 57.3 µM (inactive) |  | 37.9 µM (inactive) | 47.2 µM (inactive) | 90.2 µM (inactive) | > 100 µM (inactive) | 56.1 µM (inactive) | > 100 µM (inactive) | 51.8 µM (inactive) | 
CCOC(=O)NC(Nc1ccc(C)cc1)(C(F)(F)F)C(F)(F)F |  | > 100 µM (inactive) | > 100 µM (inactive) | > 100 µM (inactive) | > 100 µM (inactive) | > 100 µM (inactive) |  | > 100 µM (inactive) | > 100 µM (inactive) | > 100 µM (inactive) | > 100 µM (inactive) | > 100 µM (inactive) | > 100 µM (inactive) | > 100 µM (inactive) | > 100 µM (inactive) | > 100 µM (inactive) | > 100 µM (inactive) | > 100 µM (inactive) | > 100 µM (inactive) | > 100 µM (inactive)
CCOC(=O)CCC(NC(=O)c1ccc(Oc2nc3c(N)cc(C(F)(F)F)cc3nc2-c2ccccc2)cc1)C(=O)OCC (stereo not given) | 2.82 µM (inactive) | 19.5 µM (inactive) | > 100 µM (inactive) | 56.8 µM (inactive) | > 46.3 µM (inactive) | 12.4 µM (inactive) |  | 17.6 µM (inactive) | 1.09 µM (active) | > 50.6 µM (inactive) | 5.96 µM (inactive) | 6.98 µM (inactive) | 38.8 µM (inactive) | > 100 µM (inactive) | > 27.1 µM (inactive) | 3.42 µM (inactive) | 2.14 µM (inactive) | > 100 µM (inactive) | > 100 µM (inactive) | 13.5 µM (inactive)
Cc1ccccc1S(=O)(=O)OC1NS(=O)(=O)c2ccccc21 (stereo not given) | > 100 µM (inactive) | > 100 µM (inactive) | > 100 µM (inactive) | > 100 µM (inactive) | > 100 µM (inactive) | > 100 µM (inactive) | > 100 µM (inactive) | > 100 µM (inactive) | > 100 µM (inactive) | > 100 µM (inactive) | > 100 µM (inactive) | > 100 µM (inactive) |  | > 100 µM (inactive) | > 100 µM (inactive) | > 100 µM (inactive) | > 100 µM (inactive) | > 100 µM (inactive) |  | > 100 µM (inactive)
